Test results: the NIST ThermoML archive (doi:10.1007/s10765-005-5566-6)
Numbers after ± are expanded uncertainties.

Details: Gas, Hot wire method

O=C=O [carbon dioxide]
Details | thermal conductivity [W/m/K]
298.89 K, 6100 kPa | 0.03312 ± 0.00059
299.02 K, 5760 kPa | 0.02896 ± 0.00053
299.19 K, 5400 kPa | 0.02633 ± 0.00048
299.31 K, 5035 kPa | 0.02441 ± 0.00045
299.5 K, 4555 kPa | 0.02268 ± 0.00042
299.6 K, 3980 kPa | 0.02109 ± 0.00039
299.73 K, 3285 kPa | 0.01968 ± 0.00037
299.85 K, 2555 kPa | 0.01861 ± 0.00035
300.06 K, 1702 kPa | 0.01777 ± 0.00034
300.37 K, 714 kPa | 0.01712 ± 0.00033
302.67 K, 6635 kPa | 0.037 ± 0.00066
302.77 K, 6400 kPa | 0.03309 ± 0.00059
302.8 K, 6025 kPa | 0.02905 ± 0.00053
302.86 K, 5675 kPa | 0.02694 ± 0.00049
302.92 K, 5290 kPa | 0.02471 ± 0.00045
302.97 K, 4870 kPa | 0.02339 ± 0.00043
303.08 K, 4340 kPa | 0.02178 ± 0.0004
303.22 K, 3765 kPa | 0.02053 ± 0.00038
303.51 K, 3160 kPa | 0.01961 ± 0.00037
303.81 K, 2415 kPa | 0.01872 ± 0.00035
303.99 K, 1612 kPa | 0.01795 ± 0.00034
304.21 K, 724 kPa | 0.01741 ± 0.00033
324.87 K, 7960 kPa | 0.03214 ± 0.00058
324.9 K, 7750 kPa | 0.03118 ± 0.00056
324.92 K, 7440 kPa | 0.02954 ± 0.00054
324.95 K, 5960 kPa | 0.02501 ± 0.00046
325.01 K, 6900 kPa | 0.02771 ± 0.0005
325.04 K, 6760 kPa | 0.02716 ± 0.0005
325.1 K, 5575 kPa | 0.02434 ± 0.00045
325.12 K, 6360 kPa | 0.02611 ± 0.00048
325.28 K, 5060 kPa | 0.02323 ± 0.00043
325.42 K, 4605 kPa | 0.02254 ± 0.00042
325.48 K, 4040 kPa | 0.02182 ± 0.0004
325.64 K, 3500 kPa | 0.02126 ± 0.0004
325.81 K, 2880 kPa | 0.02052 ± 0.00038
325.93 K, 2218 kPa | 0.02003 ± 0.00037
326.03 K, 1514 kPa | 0.01958 ± 0.00037
326.17 K, 684 kPa | 0.01921 ± 0.00036
326.26 K, 497 kPa | 0.0191 ± 0.00036
350.83 K, 9985 kPa | 0.03324 ± 0.0006
350.89 K, 8840 kPa | 0.03029 ± 0.00055
350.96 K, 7540 kPa | 0.02768 ± 0.0005
351.12 K, 6040 kPa | 0.02551 ± 0.00047
351.44 K, 4275 kPa | 0.02351 ± 0.00043
351.82 K, 2214 kPa | 0.02197 ± 0.0004
351.87 K, 1820 kPa | 0.02181 ± 0.0004
351.91 K, 1420 kPa | 0.02153 ± 0.0004
352.1 K, 994 kPa | 0.02141 ± 0.00039
352.23 K, 572 kPa | 0.02136 ± 0.00039
375.68 K, 14930 kPa | 0.04175 ± 0.00075
375.71 K, 13880 kPa | 0.03888 ± 0.0007
375.75 K, 12560 kPa | 0.03615 ± 0.00065
375.8 K, 11100 kPa | 0.03322 ± 0.0006
375.85 K, 9640 kPa | 0.03079 ± 0.00056
375.91 K, 8060 kPa | 0.02887 ± 0.00052
376.01 K, 6260 kPa | 0.02673 ± 0.00049
376.11 K, 4240 kPa | 0.02504 ± 0.00046
376.28 K, 2004 kPa | 0.02377 ± 0.00043
376.51 K, 1015 kPa | 0.02346 ± 0.00043
400.85 K, 15010 kPa | 0.03843 ± 0.00069
400.93 K, 13550 kPa | 0.03623 ± 0.00066
400.98 K, 11950 kPa | 0.03389 ± 0.00061
401.03 K, 10340 kPa | 0.03194 ± 0.00058
401.15 K, 8495 kPa | 0.03004 ± 0.00054
401.3 K, 6660 kPa | 0.0285 ± 0.00052
401.42 K, 4600 kPa | 0.02712 ± 0.00049
401.6 K, 2382 kPa | 0.02597 ± 0.00047
401.66 K, 1690 kPa | 0.02584 ± 0.00047
401.74 K, 975 kPa | 0.02566 ± 0.00046
427.12 K, 12000 kPa | 0.03429 ± 0.00062
427.23 K, 9898 kPa | 0.0325 ± 0.00059
427.38 K, 8240 kPa | 0.03127 ± 0.00056
427.51 K, 6160 kPa | 0.02966 ± 0.00053
427.67 K, 3970 kPa | 0.02879 ± 0.00052
427.7 K, 3020 kPa | 0.02833 ± 0.00051
427.95 K, 2050 kPa | 0.02812 ± 0.0005
428.05 K, 1040 kPa | 0.02797 ± 0.0005
